Experimental data published in ChEMBL document CHEMBL3885881, “DrugMatrix”.

Organism: Rattus norvegicus
Assay: DrugMatrix - Regimen: Daily Repeat
Type: toxicity, organism-based, Sprague-Dawley
Design: regimen Daily Repeat, gender Male, age 6-8 weeks
Conditions: in vivo, po, route oral GAVAGE, vehicle 100 % WATER; for ABSOLUTE BASOPHIL / ABSOLUTE EOSINOPHIL / ABSOLUTE LYMPHOCYTE / ABSOLUTE MONOCYTE / ABSOLUTE SEGMENTED NEUTROPHIL / BASOPHIL / EOSINOPHIL / ERYTHROCYTE COUNT / HEMATOCRIT / HEMOGLOBIN / LEUKOCYTE COUNT / LYMPHOCYTE / MEAN CORPUSCULAR HEMOGLOBIN / MEAN CORPUSCULAR HEMOGLOBIN CONCENTRATION / MEAN CORPUSCULAR VOLUME / MONOCYTE / NEUTROPHIL / NUCLEATED RED BLOOD CELLS / PLATELET COUNT: tissue Blood; for ALANINE AMINOTRANSFERASE / ALBUMIN / ALKALINE PHOSPHATASE / ASPARTATE AMINOTRANSFERASE / BLOOD UREA NITROGEN / CARBON DIOXIDE / CHLORIDE / CHOLESTEROL / CREATINE PHOSPHOKINASE / CREATININE / GLUCOSE / LACTATE DEHYDROGENASE / LIPASE / PHOSPHORUS / POTASSIUM / SODIUM / TOTAL BILIRUBIN / TOTAL PROTEIN / URIC ACID: tissue Plasma
[1] = 4.5 mg/kg, 120 h, dose level Low, time 5 day
[2] = 45 mg/kg, 72 h, dose level High, time 3 day
[3] = 45 mg/kg, 120 h, dose level High, time 5 day

NN [HYDRAZINE]
ABSOLUTE BASOPHIL [1]: 0 CELLS/uL | ABSOLUTE EOSINOPHIL [1]: 61.33 CELLS/uL | ABSOLUTE LYMPHOCYTE [1]: 9152.67 CELLS/uL | ABSOLUTE MONOCYTE [1]: 216 CELLS/uL | ABSOLUTE SEGMENTED NEUTROPHIL [1]: 1236.67 CELLS/uL | BASOPHIL [1]: 0% | EOSINOPHIL [1]: 0.67% | ERYTHROCYTE COUNT [1]: 5.22 x10E6/uL | HEMATOCRIT [1]: 32.97% | HEMOGLOBIN [1]: 13.03 G/DL | LEUKOCYTE COUNT [1]: 10.67 x10E3/uL | LYMPHOCYTE [1]: 85.33% | MEAN CORPUSCULAR HEMOGLOBIN [1]: 25 pg | MEAN CORPUSCULAR HEMOGLOBIN CONCENTRATION [1]: 39.57 G/DL | MEAN CORPUSCULAR VOLUME [1]: 63.23 fL | MONOCYTE [1]: 2% | NEUTROPHIL [1]: 12% | NUCLEATED RED BLOOD CELLS [1]: 0 /100WBC | PLATELET COUNT [1]: 1367.67 x10E3/uL | ALANINE AMINOTRANSFERASE [1]: 34.33 u/L | ALBUMIN [1]: 4.27 G/DL | ALKALINE PHOSPHATASE [1]: 357 u/L | ASPARTATE AMINOTRANSFERASE [1]: 88.33 u/L | BLOOD UREA NITROGEN [1]: 18.33 mg/dL | CARBON DIOXIDE [1]: 28 mmol/L | CHLORIDE [1]: 100 MEQ/L | CHOLESTEROL [1]: 80 mg/dL | CREATINE PHOSPHOKINASE [1]: 469 u/L | CREATININE [1]: 0.17 mg/dL | GLUCOSE [1]: 135.67 mg/dL | LACTATE DEHYDROGENASE [1]: 538.33 u/L | LIPASE [1]: 11 u/L | PHOSPHORUS [1]: 11.77 mg/dL | POTASSIUM [1]: 5.73 MEQ/L | SODIUM [1]: 142.13 MEQ/L | TOTAL BILIRUBIN [1]: 0.13 mg/dL | TOTAL PROTEIN [1]: 5.87 G/DL | URIC ACID [1]: 1.37 mg/dL | ABSOLUTE BASOPHIL [2]: 0 CELLS/uL | ABSOLUTE EOSINOPHIL [2]: 101.33 CELLS/uL | ABSOLUTE LYMPHOCYTE [2]: 9888 CELLS/uL | ABSOLUTE MONOCYTE [2]: 143.33 CELLS/uL | ABSOLUTE SEGMENTED NEUTROPHIL [2]: 634 CELLS/uL | BASOPHIL [2]: 0% | EOSINOPHIL [2]: 1% | ERYTHROCYTE COUNT [2]: 5.85 x10E6/uL | HEMATOCRIT [2]: 35.23% | HEMOGLOBIN [2]: 13.87 G/DL | LEUKOCYTE COUNT [2]: 10.77 x10E3/uL | LYMPHOCYTE [2]: 91.67% | MEAN CORPUSCULAR HEMOGLOBIN [2]: 23.77 pg | MEAN CORPUSCULAR HEMOGLOBIN CONCENTRATION [2]: 39.43 G/DL | MEAN CORPUSCULAR VOLUME [2]: 60.27 fL | MONOCYTE [2]: 1.33% | NEUTROPHIL [2]: 6% | NUCLEATED RED BLOOD CELLS [2]: 0.33 /100WBC | PLATELET COUNT [2]: 1202 x10E3/uL | ALANINE AMINOTRANSFERASE [2]: 14 u/L | ALBUMIN [2]: 4.07 G/DL | ALKALINE PHOSPHATASE [2]: 403.33 u/L | ASPARTATE AMINOTRANSFERASE [2]: 77.67 u/L | BLOOD UREA NITROGEN [2]: 17.67 mg/dL | CARBON DIOXIDE [2]: 31.33 mmol/L | CHLORIDE [2]: 98.33 MEQ/L | CHOLESTEROL [2]: 44 mg/dL | CREATINE PHOSPHOKINASE [2]: 676.33 u/L | CREATININE [2]: 0.11 mg/dL | GLUCOSE [2]: 133.33 mg/dL | LACTATE DEHYDROGENASE [2]: 533 u/L | LIPASE [2]: 11 u/L | PHOSPHORUS [2]: 11.23 mg/dL | POTASSIUM [2]: 6.63 MEQ/L | SODIUM [2]: 138.67 MEQ/L | TOTAL BILIRUBIN [2]: 0.13 mg/dL | TOTAL PROTEIN [2]: 5.5 G/DL | URIC ACID [2]: 1.6 mg/dL | ABSOLUTE BASOPHIL [3]: 0 CELLS/uL | ABSOLUTE EOSINOPHIL [3]: 63.33 CELLS/uL | ABSOLUTE LYMPHOCYTE [3]: 8413.33 CELLS/uL | ABSOLUTE MONOCYTE [3]: 93 CELLS/uL | ABSOLUTE SEGMENTED NEUTROPHIL [3]: 730.33 CELLS/uL | BASOPHIL [3]: 0% | EOSINOPHIL [3]: 0.67% | ERYTHROCYTE COUNT [3]: 5.35 x10E6/uL | HEMATOCRIT [3]: 31.4% | HEMOGLOBIN [3]: 12.23 G/DL | LEUKOCYTE COUNT [3]: 9.3 x10E3/uL | LYMPHOCYTE [3]: 90.67% | MEAN CORPUSCULAR HEMOGLOBIN [3]: 22.9 pg | MEAN CORPUSCULAR HEMOGLOBIN CONCENTRATION [3]: 38.97 G/DL | MEAN CORPUSCULAR VOLUME [3]: 58.77 fL | MONOCYTE [3]: 1% | NEUTROPHIL [3]: 7.67% | NUCLEATED RED BLOOD CELLS [3]: 0 /100WBC | PLATELET COUNT [3]: 1463.33 x10E3/uL | ALANINE AMINOTRANSFERASE [3]: 14.67 u/L | ALBUMIN [3]: 4 G/DL | ALKALINE PHOSPHATASE [3]: 346 u/L | ASPARTATE AMINOTRANSFERASE [3]: 75.67 u/L | BLOOD UREA NITROGEN [3]: 18.67 mg/dL | CARBON DIOXIDE [3]: 25.33 mmol/L | CHLORIDE [3]: 99 MEQ/L | CHOLESTEROL [3]: 50.67 mg/dL | CREATINE PHOSPHOKINASE [3]: 391.33 u/L | CREATININE [3]: 0.11 mg/dL | GLUCOSE [3]: 153.33 mg/dL | LACTATE DEHYDROGENASE [3]: 326 u/L | LIPASE [3]: 11.33 u/L | PHOSPHORUS [3]: 11.23 mg/dL | POTASSIUM [3]: 6.42 MEQ/L | SODIUM [3]: 139.93 MEQ/L | TOTAL BILIRUBIN [3]: 0.2 mg/dL | TOTAL PROTEIN [3]: 5.37 G/DL | URIC ACID [3]: 1.4 mg/dL
